The results in this text go back to patent publication US10442803B2, “Tricyclic heterocycles as bet protein inhibitors” (Incyte Corporation, priority 2013, dated 2019).

This test concerns KMS.12.BM cells. Briefly: KMS.12.BM cell viability assay. The test is classed as cell-based. The following applies: 72 h; KMS.12.BM human myeloma cells, 3 days, Cell Titer-GLO ATP quantitation; read-out: KMS cellular IC50. The procedure: KMS.12.BM cell line (human myeloma) was purchased from JCRB (Osaka, Japan) and maintained in RPMI with 10% FBS culture medium. To measure the cytotoxic activity of the compounds through ATP quantitation, the KMS.12.BM cells are plated in the RPMI culture medium at 5000 cells/well/per 100 μL into a 96-well polystyrene clear black tissue culture plate (Greiner-bio-one through VWR, NJ), in the presence or absence of a concentration range of test compounds. After 3 days, […] Cell Titer-GLO Luminescent (Promega, Madison, Wis.) cell culture agent is added to each well for 10 minutes at room temperature to stabilize the luminescent signal. This determines the number of viable cells in culture based on quantitation of the ATP present, which signals the presence of metabolically active cells. Luminescence is measured with the Top Count 384 (Packard Bioscience through Perkin Elmer, Boston, Mass.).
IC50 data for the Examples is presented in Table 4 as determined by Assay B1.

Structures can show the parent of a compound that is named as a salt.

As to `Cc1cc2c(ccc3nnc(C)n32)n1Cc1cccc(C(=O)NO)c1` [Example 31, 3-[(1,7-dimethyl-6H-pyrrolo[2,3-e][1,2,4]triazolo[4,3-a]pyridin-6-yl)methyl]-N-hydroxybenzamide trifluoroacetate salt], the IC50 was 1000 to 10000 nM.

Turning to `CNC(=O)c1cccc(Cn2c(C)cc3c2ccc2nnc(C)n23)c1` [Example 32, 3-[(1,7-dimethyl-6H-pyrrolo[2,3-e][1,2,4]triazolo[4,3-a]pyridin-6-yl)methyl]-N-methylbenzamide trifluoroacetate salt], the IC50 was ≤ 1000 nM.

On to `CCNC(=O)c1cccc(Cn2c(C)cc3c2ccc2nnc(C)n23)c1` [Example 33, 3-[(1,7-dimethyl-6H-pyrrolo[2,3-e][1,2,4]triazolo[4,3-a]pyridin-6-yl)methyl]-N-ethylbenzamide trifluoroacetate salt], for which the IC50 was ≤ 1000 nM.

Regarding `COc1ccc(Cn2c(C)cc3c2ccc2nnc(C)n23)cc1` [Example 34, 6-(4-methoxybenzyl)-1,7-dimethyl-6H-pyrrolo[2,3-e][1,2,4]triazolo[4,3-a]pyridine], the IC50 was ≤ 1000 nM.

As for `Cc1cc2c(ccc3nnc(C)n32)n1Cc1ccc(O)cc1` [Example 35, 4-[(1,7-dimethyl-6H-pyrrolo[2,3-e][1,2,4]triazolo[4,3-a]pyridin-6-yl)methyl]phenol], the IC50 was ≤ 1000 nM.

As to `Cc1cc2c(ccc3nnc(C)n32)n1Cc1cccc(CNCCO)c1` [Example 36, 2-({3-[(1,7-dimethyl-6H-pyrrolo[2,3-e][1,2,4]triazolo[4,3-a]pyridin-6-yl)methyl]benzyl}amino)ethanol], the IC50 was ≤ 1000 nM.

For the molecule `Cc1cc2c(ccc3nnc(C)n32)n1Cc1cccc(CN(C)CCO)c1` [Example 37, 2-[{3-[(1,7-dimethyl-6H-pyrrolo[2,3-e][1,2,4]triazolo[4,3-a]pyridin-6-yl)methyl]benzyl}(methyl)amino]ethanol], the IC50 was ≤ 1000 nM.

Take `Cc1cc2c(ccc3nnc(C)n32)n1Cc1cccc(CN2CCOCC2)c1` [Example 38, 1,7-dimethyl-6-[3-(morpholin-4-ylmethyl)benzyl]-6H-pyrrolo[2,3-e][1,2,4]triazolo[4,3-a]pyridine]: the IC50 is ≤ 1000 nM.

For the molecule `Cc1cc2c(ccc3nnc(C)n32)n1Cc1cccc(CN[C@H]2C[C@H](O)C2)c1` [Example 39, (1r,3r)-3-((3-((1,7-dimethyl-6H-pyrrolo[2,3-e][1,2,4]triazolo[4,3-a]pyridin-6-yl)methyl)benzyl)amino)cyclobutanol], the IC50 was ≤ 1000 nM.

Regarding `Cc1cc2c(ccc3nnc(C)n32)n1Cc1cccc(CN(C)C)c1` [Example 40, 1-{3-[(1,7-dimethyl-6H-pyrrolo[2,3-e][1,2,4]triazolo[4,3-a]pyridin-6-yl)methyl]phenyl}-N,N-dimethylmethanamine], the IC50 is ≤ 1000 nM.

On to `CNCc1cccc(Cn2c(C)cc3c2ccc2nnc(C)n23)c1` [Example 41, 1-{3-[(1,7-dimethyl-6H-pyrrolo[2,3-e][1,2,4]triazolo[4,3-a]pyridin-6-yl)methyl]phenyl}-N-methylmethanamine], for which the half-inhibitory concentration (IC50) is ≤ 1000 nM.

As to `CCNCc1cccc(Cn2c(C)cc3c2ccc2nnc(C)n23)c1` [Example 42, N-{3-[(1,7-dimethyl-6H-pyrrolo[2,3-e][1,2,4]triazolo[4,3-a]pyridin-6-yl)methyl]benzyl}ethanamine], the half-inhibitory concentration (IC50) was ≤ 1000 nM.

On to `CCNC(=O)Nc1cccc(Cn2c(C)cc3c2ccc2nnc(C)n23)c1` [Example 43, N-{3-[(1,7-dimethyl-6H-pyrrolo[2,3-e][1,2,4]triazolo[4,3-a]pyridin-6-yl)methyl]phenyl}-N′-ethylurea trifluoroacetate salt], for which the IC50 was in the range of 1000 to 10000 nM.

For `Cc1cc2c(ccc3nnc(C)n32)n1Cc1cccc(NC(N)=O)c1` [Example 44, N-{3-[(1,7-dimethyl-6H-pyrrolo[2,3-e][1,2,4]triazolo[4,3-a]pyridin-6-yl)methyl]phenyl}urea], the IC50 lay within 1000 to 10000 nM.

On to `Cc1cc2c(ccc3nnc(C)n32)n1Cc1cccc(CN2CCCC2)c1` [Example 45, 1,7-dimethyl-6-[3-(pyrrolidin-1-ylmethyl)benzyl]-6H-pyrrolo[2,3-e][1,2,4]triazolo[4,3-a]pyridine], for which the IC50 is ≤ 1000 nM.

Consider `Cc1cc2c(ccc3nnc(C)n32)n1Cc1cccc(CN2CCCCC2)c1` [Example 46, 1,7-dimethyl-6-[3-(piperidin-1-ylmethyl)benzyl]-6H-pyrrolo[2,3-e][1,2,4]triazolo[4,3-a]pyridine], for which the IC50 was ≤ 1000 nM.

As to `Cc1cc2c(ccc3nnc(C)n32)n1Cc1cccc(CN2CCN(C)CC2)c1` [Example 47, 1,7-dimethyl-6-{3-[(4-methylpiperazin-1-yl)methyl]benzyl}-6H-pyrrolo[2,3-e][1,2,4]triazolo[4,3-a]pyridine], the IC50 fell in the range of 1000 to 10000 nM.

`Cc1cc2c(ccc3nnc(C)n32)n1Cc1cccc(CN2CCNCC2)c1` [Example 48, 1,7-dimethyl-6-[3-(piperazin-1-ylmethyl)benzyl]-6H-pyrrolo[2,3-e][1,2,4]triazolo[4,3-a]pyridine]: the IC50 was 1000 to 10000 nM.

In the case of `Cc1cc2c(ccc3nnc(C)n32)n1Cc1ccc(CO)cc1` [Example 49, {4-[(1,7-dimethyl-6H-pyrrolo[2,3-e][1,2,4]triazolo[4,3-a]pyridin-6-yl)methyl]phenyl}methanol], the IC50 was ≤ 1000 nM.

As for `Cc1cc2c(ccc3nnc(C)n32)n1Cc1ccc(CN2CCC2)cc1` [Example 50, 6-[4-(azetidin-1-ylmethyl)benzyl]-1,7-dimethyl-6H-pyrrolo[2,3-e][1,2,4]triazolo[4,3-a]pyridine], the IC50 is 1000 to 10000 nM.

`Cc1cc2c(ccc3nnc(C)n32)n1Cc1ccc(CN2CC(O)C2)cc1` [Example 52, 1-{4-[(1,7-dimethyl-6H-pyrrolo[2,3-e][1,2,4]triazolo[4,3-a]pyridin-6-yl)methyl]benzyl}azetidin-3-ol]: the IC50 lay within 1000 to 10000 nM.

For the molecule `Cc1cc2c(ccc3nnc(C)n32)n1Cc1ccc(CN(C)C)cc1` [Example 53, 1-{4-[(1,7-dimethyl-6H-pyrrolo[2,3-e][1,2,4]triazolo[4,3-a]pyridin-6-yl)methyl]phenyl}-N,N-dimethylmethanamine], the 50% inhibitory concentration (IC50) was in the range of 1000 to 10000 nM.

With `COC1CN(Cc2cccc(Cn3c(C)cc4c3ccc3nnc(C)n34)c2)C1` [Example 54, 6-{3-[(3-methoxyazetidin-1-yl)methyl]benzyl}-1,7-dimethyl-6H-pyrrolo[2,3-e][1,2,4]triazolo[4,3-a]pyridine], the IC50 was ≤ 1000 nM.

Take `Cc1nc2c(ccc3nnc(C)n32)n1Cc1ccccc1` [Example 55, 3-benzyl-2,8-dimethyl-3H-imidazo[4,5-e][1,2,4]triazolo[4,3-a]pyridine]: the IC50 was ≤ 1000 nM.

For `Cc1nnc2ccc3c(cc(CO)n3Cc3ccccc3)n12` [Example 56, (6-benzyl-1-methyl-6H-pyrrolo[2,3-e][1,2,4]triazolo[4,3-a]pyridin-7-yl)methanol], the IC50 lay within 1000 to 10000 nM.

`Cc1nnc2ccc3c(cc(Cn4ccnc4)n3Cc3ccccc3)n12` [Example 57, 6-benzyl-7-(1H-imidazol-1-ylmethyl)-1-methyl-6H-pyrrolo[2,3-e][1,2,4]triazolo[4,3-a]pyridine]: the IC50 was 1000 to 10000 nM.

`Cc1nnc2ccc3c(cc(C(N)=O)n3Cc3ccccc3)n12` [Example 58, 6-benzyl-1-methyl-6H-pyrrolo[2,3-e][1,2,4]triazolo[4,3-a]pyridine-7-carboxamide]: the IC50 is ≤ 1000 nM.

Take `CCNC(=O)c1cc2c(ccc3nnc(C)n32)n1Cc1ccccc1` [Example 59, 6-benzyl-N-ethyl-1-methyl-6H-pyrrolo[2,3-e][1,2,4]triazolo[4,3-a]pyridine-7-carboxamide]: the IC50 is ≤ 1000 nM.

`Cc1nnc2ccc3c(cc(C(=O)N4CC(C#N)C4)n3Cc3ccccc3)n12` [Example 60, 1-[(6-benzyl-1-methyl-6H-pyrrolo[2,3-e][1,2,4]triazolo[4,3-a]pyridin-7-yl)carbonyl]azetidine-3-carbonitrile]: the IC50 is ≤ 1000 nM.

On to `Cc1nnc2ccc3c(cc(CCO)n3Cc3ccccc3)n12` [Example 61, 2-(6-benzyl-1-methyl-6H-pyrrolo[2,3-e][1,2,4]triazolo[4,3-a]pyridin-7-yl)ethanol], for which the IC50 is 1000 to 10000 nM.

For `Cc1nnc2ccc3c(cc(-c4ccn[nH]4)n3Cc3ccccc3)n12` [Example 62, 6-benzyl-1-methyl-7-(1H-pyrazol-5-yl)-6H-pyrrolo[2,3-e][1,2,4]triazolo[4,3-a]pyridine], the IC50 was ≤ 1000 nM.

`Cc1nnc2ccc3c(cc(-c4cn[nH]c4)n3Cc3ccccc3)n12` [Example 63, 6-benzyl-1-methyl-7-(1H-pyrazol-4-yl)-6H-pyrrolo[2,3-e][1,2,4]triazolo[4,3-a]pyridine]: the IC50 is ≤ 1000 nM.

Consider `Cc1nnc2ccc3c(cc(-c4cnn(CC#N)c4)n3Cc3ccccc3)n12` [Example 64, [4-(6-benzyl-1-methyl-6H-pyrrolo[2,3-e][1,2,4]triazolo[4,3-a]pyridin-7-yl)-1H-pyrazol-1-yl]acetonitrile], for which the IC50 is ≤ 1000 nM.

With `Cc1nnc2ccc3c(cc(-c4ccn(CC#N)n4)n3Cc3ccccc3)n12` [Example 65, [3-(6-benzyl-1-methyl-6H-pyrrolo[2,3-e][1,2,4]triazolo[4,3-a]pyridin-7-yl)-1H-pyrazol-1-yl]acetonitrile], the IC50 is ≤ 1000 nM.

For `Cc1nnc2ccc3c(cc(-c4cscn4)n3Cc3ccccc3)n12` [Example 66, 6-benzyl-1-methyl-7-(1,3-thiazol-4-yl)-6H-pyrrolo[2,3-e][1,2,4]triazolo[4,3-a]pyridine], the IC50 was ≤ 1000 nM.

Broadly, the IC50 is the concentration that gives 50% inhibition.
